Test results: the SangsterLogP compilation

assay: not given; conditions: not given

Structure (SMILES) | logP
COc1cccc(C2SCC(=O)N2c2ccccc2)c1 (stereo not drawn) | 1.96
N#Cc1ccc(C2SCC(=O)N2c2ccccc2)cc1 (stereo not drawn) | 1.32
COc1ccc(N2C(=O)CS(=O)C2c2ccccc2)cc1 (stereo not drawn) | 1.07
O=C1CSC(c2ccccc2)N1c1ccc(Br)cc1 (stereo not drawn) | 2.56
O=C1CSC(c2ccc(Br)cc2)N1c1ccccc1 (stereo not drawn) | 2.66
Cc1ccc(N2C(=O)CSC2c2ccccc2)cc1 (stereo not drawn) | 2.32
O=C1CS(=O)C(c2ccccc2)N1c1ccccc1 (stereo not drawn) | 1.07
COc1ccc(N2C(=O)CSC2c2ccccc2)cc1 (stereo not drawn) | 1.92
O=C1CSC(c2ccc(Cl)cc2)N1c1ccccc1 (stereo not drawn) | 2.52
O=C1CSC(c2ccccc2)N1c1ccc(Cl)cc1 (stereo not drawn) | 2.42
COc1ccc(C2SCC(=O)N2c2ccccc2)cc1 (stereo not drawn) | 1.97
O=C1CSC(c2ccccc2)N1c1ccccc1 (stereo not drawn) | 1.88
Cc1ccc(C2SCC(=O)N2c2ccccc2)cc1 (stereo not drawn) | 2.48
O=C1CSC(c2ccccc2)N1c1ccc(O)cc1 (stereo not drawn) | 1.29

Second part, the compound after the results:

logP | Structure (SMILES)
1.09 | O=C1CS(=O)(=O)C(c2ccccc2)N1c1cccc([N+](=O)[O-])c1 (stereo not drawn)
1.63 | O=C1CS(=O)C(c2cccc(Br)c2)N1c1ccccc1 (stereo not drawn)
1.09 | O=C1CS(=O)C(c2ccccc2)N1c1cccc([N+](=O)[O-])c1 (stereo not drawn)
2.58 | O=C1CSC(c2ccccc2)N1c1cccc(Br)c1 (stereo not drawn)
2.32 | O=C1CSC(c2cccc(Cl)c2)N1c1ccccc1 (stereo not drawn)
2.3 | Cc1cccc(C2SCC(=O)N2c2ccccc2)c1 (stereo not drawn)
1.63 | O=C1CS(=O)(=O)C(c2cccc(Br)c2)N1c1ccccc1 (stereo not drawn)
1.9 | O=C1CSC(c2ccccc2)N1c1cccc([N+](=O)[O-])c1 (stereo not drawn)
1.75 | O=C1CSC(c2ccc([N+](=O)[O-])cc2)N1c1ccccc1 (stereo not drawn)
1.09 | COc1ccc(N2C(=O)CS(=O)(=O)C2c2ccccc2)cc1 (stereo not drawn)
1.73 | O=C1CSC(c2cccc([N+](=O)[O-])c2)N1c1ccccc1 (stereo not drawn)
1.9 | O=C1CSC(c2cccc(F)c2)N1c1ccccc1 (stereo not drawn)
2.44 | O=C1CSC(c2cccc(Br)c2)N1c1ccccc1 (stereo not drawn)

assay: method code SF-AS, from Woolston, C.; Lee, J.; Swinbourne, F. (1994). Partition coefficients and chromatographic parameters of some substituted 1,3-thiazolidin-4-ones. Ind. J. Chem., Sect. B, 33(6)590-592.; conditions: pH 7.4

logD | Structure (SMILES)
1.23 | O=C1CS(=O)(=O)C(c2ccccc2)N1c1ccccc1 (stereo not drawn)
